Results: PubChem BioAssay (NCI)
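Assay format: 96-well plates, 48-hour exposure. Definition used: TGI = concentration required for complete inhibition of growth.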

What was measured:
Assay in all cases: NCI anticancer screen, dose series, 48 h
786-0 renal = tested on: 786-0 renal
A498 renal = tested on: A498 renal
A549 NSCLC = tested on: A549 NSCLC
ACHN renal = tested on: ACHN renal
BT-549 breast = tested on: BT-549 breast
CAKI-1 renal = tested on: CAKI-1 renal
CCRF-CEM leukemia = tested on: CCRF-CEM leukemia
COLO 205 colon = tested on: COLO 205 colon
DU-145 prostate = tested on: DU-145 prostate
EKVX NSCLC = tested on: EKVX NSCLC
HCC-2998 colon = tested on: HCC-2998 colon
HCT-116 colon = tested on: HCT-116 colon
HCT-15 colon = tested on: HCT-15 colon
HL-60(TB) leukemia = tested on: HL-60(TB) leukemia
HOP-62 NSCLC = tested on: HOP-62 NSCLC
HOP-92 NSCLC = tested on: HOP-92 NSCLC
HS 578T breast = tested on: HS 578T breast
HT29 colon = tested on: HT29 colon
IGROV1 ovarian = tested on: IGROV1 ovarian
K-562 leukemia = tested on: K-562 leukemia
KM12 colon = tested on: KM12 colon
LOX IMVI melanoma = tested on: LOX IMVI melanoma
M14 melanoma = tested on: M14 melanoma
MALME-3M melanoma = tested on: MALME-3M melanoma
MCF7 breast = tested on: MCF7 breast
MDA-MB-231 breast = tested on: MDA-MB-231 breast
MDA-MB-435 = tested on: MDA-MB-435
MDA-N = tested on: MDA-N
MOLT-4 leukemia = tested on: MOLT-4 leukemia
NCI-H226 lung = tested on: NCI-H226 lung
NCI-H23 lung = tested on: NCI-H23 lung
NCI-H460 lung = tested on: NCI-H460 lung
NCI-H522 lung = tested on: NCI-H522 lung
NCI/ADR-RES ovarian = tested on: NCI/ADR-RES ovarian
OVCAR-3 ovarian = tested on: OVCAR-3 ovarian
OVCAR-4 ovarian = tested on: OVCAR-4 ovarian
OVCAR-5 ovarian = tested on: OVCAR-5 ovarian
OVCAR-8 ovarian = tested on: OVCAR-8 ovarian
PC-3 prostate = tested on: PC-3 prostate
RPMI-8226 leukemia = tested on: RPMI-8226 leukemia
RXF 393 renal = tested on: RXF 393 renal
SF-268 CNS = tested on: SF-268 CNS
SF-295 CNS = tested on: SF-295 CNS
SF-539 CNS = tested on: SF-539 CNS
SK-MEL-2 melanoma = tested on: SK-MEL-2 melanoma
SK-MEL-28 melanoma = tested on: SK-MEL-28 melanoma
SK-MEL-5 melanoma = tested on: SK-MEL-5 melanoma
SK-OV-3 ovarian = tested on: SK-OV-3 ovarian
SN12C renal = tested on: SN12C renal
SNB-19 CNS = tested on: SNB-19 CNS
SNB-75 CNS = tested on: SNB-75 CNS
SR leukemia = tested on: SR leukemia
SW-620 colon = tested on: SW-620 colon
T-47D breast = tested on: T-47D breast
TK-10 renal = tested on: TK-10 renal
U251 CNS = tested on: U251 CNS
UACC-257 melanoma = tested on: UACC-257 melanoma
UACC-62 melanoma = tested on: UACC-62 melanoma
UO-31 renal = tested on: UO-31 renal

## Oc1ccc(SCc2cc(O)ccc2O)cc1
786-0 renal
  TGI: 36.4 µM
A498 renal
  TGI: > 89.4 µM
A549 NSCLC
  TGI: > 100 µM
ACHN renal
  TGI: 26.8 µM
BT-549 breast
  TGI: 16.5 µM
CAKI-1 renal
  TGI: 19.7 µM
CCRF-CEM leukemia
  TGI: > 100 µM
COLO 205 colon
  TGI: 38.8 µM
DU-145 prostate
  TGI: > 100 µM
EKVX NSCLC
  TGI: 41.7 µM
HCC-2998 colon
  TGI: > 68.9 µM
HCT-116 colon
  TGI: 26.1 µM
HCT-15 colon
  TGI: 30.8 µM
HL-60(TB) leukemia
  TGI: > 100 µM
HOP-62 NSCLC
  TGI: 43.7 µM
HOP-92 NSCLC
  TGI: > 47.2 µM
HS 578T breast
  TGI: 97 µM
HT29 colon
  TGI: > 100 µM
IGROV1 ovarian
  TGI: 25.6 µM
K-562 leukemia
  TGI: > 100 µM
KM12 colon
  TGI: 46.9 µM
LOX IMVI melanoma
  TGI: > 53.1 µM
M14 melanoma
  TGI: 33.7 µM
MALME-3M melanoma
  TGI: 36.2 µM
MCF7 breast
  TGI: 27.4 µM
MDA-MB-231 breast
  TGI: 36.4 µM
MDA-MB-435
  TGI: 27.1 µM
MDA-N
  TGI: 28.6 µM
MOLT-4 leukemia
  TGI: > 52.9 µM
NCI-H226 lung
  TGI: 35.5 µM
NCI-H23 lung
  TGI: > 100 µM
NCI-H460 lung
  TGI: > 86.7 µM
NCI-H522 lung
  TGI: 4.88 µM
NCI/ADR-RES ovarian
  TGI: > 57.5 µM
OVCAR-3 ovarian
  TGI: 22.4 µM
OVCAR-4 ovarian
  TGI: 18.5 µM
OVCAR-5 ovarian
  TGI: 49.5 µM
OVCAR-8 ovarian
  TGI: 41.9 µM
PC-3 prostate
  TGI: > 52.7 µM
RPMI-8226 leukemia
  TGI: > 100 µM
RXF 393 renal
  TGI: 25.5 µM
SF-268 CNS
  TGI: > 62.7 µM
SF-295 CNS
  TGI: 39 µM
SF-539 CNS
  TGI: 12.4 µM
SK-MEL-2 melanoma
  TGI: 39.2 µM
SK-MEL-28 melanoma
  TGI: 46.7 µM
SK-MEL-5 melanoma
  TGI: 22.5 µM
SK-OV-3 ovarian
  TGI: > 96.7 µM
SN12C renal
  TGI: 28.1 µM
SNB-19 CNS
  TGI: > 80.2 µM
SNB-75 CNS
  TGI: > 65.9 µM
SR leukemia
  TGI: > 100 µM
SW-620 colon
  TGI: > 62.8 µM
T-47D breast
  TGI: 30.5 µM
TK-10 renal
  TGI: 33.9 µM
U251 CNS
  TGI: 28.4 µM
UACC-257 melanoma
  TGI: > 50.3 µM
UACC-62 melanoma
  TGI: 53.2 µM
UO-31 renal
  TGI: 20.7 µM

## COc1ccc(N=Nc2c(N)nn3c(SC)c(C#N)c(N)nc23)cc1
786-0 renal
  TGI: 14.2 µM
A498 renal
  TGI: 28.5 µM
A549 NSCLC
  TGI: 36.9 µM
ACHN renal
  TGI: 28 µM
BT-549 breast
  TGI: 49.6 µM
CAKI-1 renal
  TGI: 23.5 µM
CCRF-CEM leukemia
  TGI: 4.84 µM
COLO 205 colon
  TGI: 26.4 µM
DU-145 prostate
  TGI: 19.3 µM
EKVX NSCLC
  TGI: 21.3 µM
HCC-2998 colon
  TGI: 16.7 µM
HCT-116 colon
  TGI: 28.4 µM
HCT-15 colon
  TGI: 26.4 µM
HL-60(TB) leukemia
  TGI: 6.07 µM
HOP-62 NSCLC
  TGI: 44 µM
HOP-92 NSCLC
  TGI: 27.6 µM
HS 578T breast
  TGI: 6.91 µM
HT29 colon
  TGI: 25.5 µM
IGROV1 ovarian
  TGI: 4.19 µM
K-562 leukemia
  TGI: 4.65 µM
KM12 colon
  TGI: 30.2 µM
LOX IMVI melanoma
  TGI: 3.12 µM
M14 melanoma
  TGI: 25.1 µM
MALME-3M melanoma
  TGI: 31.7 µM
MCF7 breast
  TGI: 7.97 µM
MDA-MB-231 breast
  TGI: 7.02 µM
MDA-MB-435
  TGI: 27.1 µM
MDA-N
  TGI: 26.7 µM
MOLT-4 leukemia
  TGI: 7.53 µM
NCI-H226 lung
  TGI: 40.7 µM
NCI-H23 lung
  TGI: 21.1 µM
NCI-H460 lung
  TGI: 34.7 µM
NCI-H522 lung
  TGI: 36.8 µM
NCI/ADR-RES ovarian
  TGI: 49.8 µM
OVCAR-3 ovarian
  TGI: 7.1 µM
OVCAR-4 ovarian
  TGI: 35 µM
OVCAR-5 ovarian
  TGI: 34.8 µM
OVCAR-8 ovarian
  TGI: 11.7 µM
PC-3 prostate
  TGI: 21.5 µM
RPMI-8226 leukemia
  TGI: 6.28 µM
RXF 393 renal
  TGI: 19.5 µM
SF-268 CNS
  TGI: 11.4 µM
SF-295 CNS
  TGI: 39.5 µM
SF-539 CNS
  TGI: 34.6 µM
SK-MEL-2 melanoma
  TGI: 7.12 µM
SK-MEL-28 melanoma
  TGI: 18.8 µM
SK-MEL-5 melanoma
  TGI: 34.7 µM
SK-OV-3 ovarian
  TGI: 38.8 µM
SN12C renal
  TGI: 19.1 µM
SNB-19 CNS
  TGI: 37.6 µM
SNB-75 CNS
  TGI: 40.6 µM
SR leukemia
  TGI: 4.59 µM
SW-620 colon
  TGI: 22.8 µM
T-47D breast
  TGI: 4.3 µM
TK-10 renal
  TGI: 33.6 µM
U251 CNS
  TGI: 19.5 µM
UACC-257 melanoma
  TGI: 20.8 µM
UACC-62 melanoma
  TGI: 20.4 µM
UO-31 renal
  TGI: 25.4 µM
